Test results published in patent US20240182531A1, “KV1.3 Blockers” (priority 2021, published 2024).
Read-outs that look alike come from different tables or passages of the source. Where a SMILES comes first, the peptide text is derived from it. Bridges are numbered along the chain shown (N, C = ends). [ ]: non-standard residue; d: D form. Nle = CCCC[C@H](N)C(=O)O

Assays:
[1] = target: T1, human Kv1.3 voltage-gated K+ channel (Homo sapiens, UniProt P22001); assay: Kv1.3 blocker activity in FLIPR thallium assay; assay type: cell-based
T1 construct: host or cells: CHO-DUKX
T1 sequence (P22001 whole entry): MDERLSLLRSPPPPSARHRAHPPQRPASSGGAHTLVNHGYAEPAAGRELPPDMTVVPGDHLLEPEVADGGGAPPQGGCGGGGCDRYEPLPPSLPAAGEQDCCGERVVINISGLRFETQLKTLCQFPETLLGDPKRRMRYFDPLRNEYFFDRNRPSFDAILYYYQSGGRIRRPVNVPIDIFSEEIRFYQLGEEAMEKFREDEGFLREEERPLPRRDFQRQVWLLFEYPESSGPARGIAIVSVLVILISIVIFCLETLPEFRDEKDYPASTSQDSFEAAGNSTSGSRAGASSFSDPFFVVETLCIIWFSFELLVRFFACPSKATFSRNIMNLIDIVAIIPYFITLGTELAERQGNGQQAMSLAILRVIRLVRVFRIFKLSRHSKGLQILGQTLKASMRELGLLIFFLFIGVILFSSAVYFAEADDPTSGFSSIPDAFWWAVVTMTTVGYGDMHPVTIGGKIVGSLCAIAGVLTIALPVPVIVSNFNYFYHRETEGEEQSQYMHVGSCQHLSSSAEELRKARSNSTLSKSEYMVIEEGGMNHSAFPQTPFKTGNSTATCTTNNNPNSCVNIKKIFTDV
Protocol: A human Kv1.3 voltage-gated K+ channel cell line was purchased from Perkin Elmer (#TDS-AX-010-C-1). The cell line is based on CHO-DUKX cells stably transfected with the human Kv1.3 voltage-gated K+ channel.
The cell line was grown in MEMα with nucleotides, GlutaMAX (Gibco #32571028), 10% Foetal Bovine Serum (FBS), 0.4 mg/ml Geneticin, 100 units/ml Penicillin, and 100 μg/ml Streptomycin and seeded at 10.000 cells/well in black poly-D-lysine-coated 96 well plates.
The FluxOR™ Potassium Ion Channel Assay (Invitrogen #F10016) was used to quantitate flux of thallium ions into the cells as a response to Kv1.3 activation with a stimulus buffer causes depolarization of the cell membrane, thereby generating a fluorescent signal, proportional to channel activity. The assay was performed as described by the assay kit manufacturer including a compound pre-incubation step (30 min, 37° C., 5% CO2) in assay buffer containing 0.02% W/v casein from bovine milk (Sigma #C4765) prior to cell membrane depolarization using a final stimuli buffer composition corresponding to 0.2× FluxOR™ chloride-free buffer, 5 mM K2SO4, 1 mM Tl2SO4. The fluorescence responses were recorded and quantified (maximum response at 50 s, 37° C.) using the FLIPR® Tetra High Throughput Screening System (Molecular Devices, Inc.).
IC50 can be regarded as a measure of potency of inhibition for the respective compound. The IC50 value is a measure of the concentration of an inhibitor required to achieve half of that compound's maximal inhibition of ion channel activity in a given assay.

Rat whole blood = Rat whole blood (Rattus norvegicus, UniProt P15384); assay type: cell-based
Sequence of Rat whole blood (P15384 whole entry): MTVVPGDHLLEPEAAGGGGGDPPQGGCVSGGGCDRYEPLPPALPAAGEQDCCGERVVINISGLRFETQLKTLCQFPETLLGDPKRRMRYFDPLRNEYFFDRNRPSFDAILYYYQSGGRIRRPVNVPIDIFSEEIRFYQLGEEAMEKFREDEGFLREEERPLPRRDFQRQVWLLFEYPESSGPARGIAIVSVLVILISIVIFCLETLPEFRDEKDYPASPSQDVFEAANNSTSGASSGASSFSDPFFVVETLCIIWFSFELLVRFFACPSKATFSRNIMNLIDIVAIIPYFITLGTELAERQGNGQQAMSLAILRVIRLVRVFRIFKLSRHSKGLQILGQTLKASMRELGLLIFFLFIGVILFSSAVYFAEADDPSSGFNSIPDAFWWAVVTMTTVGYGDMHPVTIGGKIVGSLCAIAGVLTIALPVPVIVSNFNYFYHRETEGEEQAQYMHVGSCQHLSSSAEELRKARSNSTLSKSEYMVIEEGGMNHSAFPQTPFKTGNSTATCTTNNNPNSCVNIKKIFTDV

[2] = tested on: KLH ear inflammation model in rats; assay type: in vivo, rat
human Kv1.6 = target: T2, human Kv1.6 (Homo sapiens, UniProt P17658); assay: cell-based
T2 construct: expressed in transfected cells; host or cells: CHO
T2 sequence (P17658 whole entry): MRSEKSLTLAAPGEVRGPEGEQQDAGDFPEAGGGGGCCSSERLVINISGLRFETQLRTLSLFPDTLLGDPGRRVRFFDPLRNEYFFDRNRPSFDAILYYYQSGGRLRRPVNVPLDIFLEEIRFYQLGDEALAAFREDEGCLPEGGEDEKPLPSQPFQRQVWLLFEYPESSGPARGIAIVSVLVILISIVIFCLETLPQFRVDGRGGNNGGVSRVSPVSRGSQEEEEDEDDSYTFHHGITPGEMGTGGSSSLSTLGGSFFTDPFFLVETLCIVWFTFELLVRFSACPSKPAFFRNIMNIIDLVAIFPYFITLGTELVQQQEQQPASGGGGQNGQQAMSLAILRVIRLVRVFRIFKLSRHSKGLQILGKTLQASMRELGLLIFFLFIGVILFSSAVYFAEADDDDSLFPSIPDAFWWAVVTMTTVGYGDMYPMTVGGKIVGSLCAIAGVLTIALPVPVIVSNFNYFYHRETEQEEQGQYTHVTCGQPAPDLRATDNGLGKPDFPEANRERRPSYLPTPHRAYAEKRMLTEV

human Kv1.1 = target: T3, human Kv1.1 (Homo sapiens, UniProt Q09470); assay: cell-based
T3 construct: expressed in transfected cells; host or cells: CHO
T3 sequence (Q09470 whole entry): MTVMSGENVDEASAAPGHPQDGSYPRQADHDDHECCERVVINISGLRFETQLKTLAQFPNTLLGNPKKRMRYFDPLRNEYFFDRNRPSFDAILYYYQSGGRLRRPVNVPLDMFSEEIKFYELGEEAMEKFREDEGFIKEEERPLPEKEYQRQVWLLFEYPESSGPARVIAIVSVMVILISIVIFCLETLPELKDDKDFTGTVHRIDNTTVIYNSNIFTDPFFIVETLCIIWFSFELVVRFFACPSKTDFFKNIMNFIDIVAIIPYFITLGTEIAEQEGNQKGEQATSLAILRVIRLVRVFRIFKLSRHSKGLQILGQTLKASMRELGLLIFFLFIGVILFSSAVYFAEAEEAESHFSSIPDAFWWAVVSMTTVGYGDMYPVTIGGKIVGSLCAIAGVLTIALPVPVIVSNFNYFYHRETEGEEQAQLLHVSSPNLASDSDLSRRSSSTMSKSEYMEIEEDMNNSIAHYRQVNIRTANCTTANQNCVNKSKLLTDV

human Kv1.2 = target: T4, human Kv1.2 (Homo sapiens, UniProt P16389); assay: cell-based
T4 construct: expressed in transfected cells; host or cells: CHO
T4 sequence (P16389 whole entry): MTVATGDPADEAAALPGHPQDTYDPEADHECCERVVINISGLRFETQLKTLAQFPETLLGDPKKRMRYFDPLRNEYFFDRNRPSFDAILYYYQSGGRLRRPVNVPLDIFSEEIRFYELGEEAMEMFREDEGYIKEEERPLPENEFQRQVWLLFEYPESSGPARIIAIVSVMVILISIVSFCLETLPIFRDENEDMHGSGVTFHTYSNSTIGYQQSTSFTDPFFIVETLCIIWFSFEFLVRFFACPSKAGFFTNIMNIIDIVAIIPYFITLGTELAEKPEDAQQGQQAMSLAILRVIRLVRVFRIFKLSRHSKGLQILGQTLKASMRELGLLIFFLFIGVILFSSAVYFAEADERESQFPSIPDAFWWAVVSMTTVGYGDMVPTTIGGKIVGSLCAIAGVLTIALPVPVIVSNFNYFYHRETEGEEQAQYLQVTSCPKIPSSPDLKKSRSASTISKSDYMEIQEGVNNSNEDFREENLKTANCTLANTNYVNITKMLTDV

[3] = IL-17A release, thapsigargin, 24 Hr, at least 2 replicates
[4] = 100 nmol/kg SC 24 hrs prior to KLH ear challenge, +/− SD
[5] = ratio of patch clamp IC50 values

Row | Compound | IC50 [1] | IC50 (Rat whole blood; [3]) | % inhibition of ear thickness (AUC of Δ ear thickness 0-48 hours) [2, 4] | Selectivity ratio Kv1.6/Kv1.3 (human Kv1.6; [5]) | Selectivity ratio Kv1.1/Kv1.3 (human Kv1.1; [5]) | Selectivity ratio Kv1.2/Kv1.3 (human Kv1.2; [5]) | other results
1 | CCCC[C@H](NC(=O)[C@@H]1CCCN1)C(=O)N[C@@H](CCC(=O)O)C(=O)N[C@@H](CCCC)C(=O)N[C@@H](CCCNC(=N)N)C(=O)N[C@H]1CSSC[C@@H]2NC(=O)[C@H](CCCCN)NC(=O)CNC(=O)[C@H](Cc3ccccc3)NC(=O)[C@H]([C@@H](C)CC)NC(=O)[C@H](CO)NC(=O)CNC(=O)[C@H]([C@@H](C)CC)NC(=O)[C@H](C)NC(=O)[C@H](C)NC(=O)[C@H](CC(C)C)NC(=O)[C@@H]3CSSC[C@@H](C(=O)N[C@@H](Cc4ccc(O)cc4)C(=O)N4CCC[C@H]4C(=O)N[C@@H](CCCNC(=N)N)C(N)=O)NC(=O)[C@H](CCCCN)NC(=O)[C@H](CSSC[C@H](NC(=O)[C@H](CCC(=O)O)NC(=O)[C@H](C(C)C)NC(=O)[C@H](CO)NC(=O)[C@H](C)NC(=O)[C@H](CCCNC(=N)N)NC1=O)C(=O)N[C@@H](C)C(=O)N[C@@H](CCC(N)=O)C(=O)N[C@@H](CO)C(=O)N3)NC(=O)[C@H](CCCCN)NC(=O)CNC(=O)[C@H](CC(N)=O)NC(=O)[C@H](CCCC)NC2=O [compound 11] (H-P[Nle]E[Nle]RCRASVECAQSCLAAIGSIFGKC[Nle]NGKCKCYPR-NH2; disulfide 6-27, 12-32, 16-34) | 0.22 nM | – | – | – | – | – | –
2 | CCCC[C@H](NC(=O)[C@@H]1CCCN1)C(=O)N[C@@H](CCC(=O)O)C(=O)N[C@@H](CCCC)C(=O)N[C@@H](CCCNC(=N)N)C(=O)N[C@H]1CSSC[C@@H]2NC(=O)[C@H](CCCCN)NC(=O)CNC(=O)[C@H](Cc3ccccc3)NC(=O)[C@H]([C@@H](C)CC)NC(=O)[C@H](CO)NC(=O)CNC(=O)[C@H]([C@@H](C)CC)NC(=O)[C@H](C)NC(=O)[C@H](C)NC(=O)[C@H](CC(C)C)NC(=O)[C@@H]3CSSC[C@@H](C(=O)N[C@@H](Cc4ccc(O)cc4)C(=O)N4CCC[C@H]4C(=O)N[C@@H](CCCNC(=N)N)C(N)=O)NC(=O)[C@H](CCCCN)NC(=O)[C@H](CSSC[C@H](NC(=O)[C@H](CCC(=O)O)NC(=O)[C@H](CCCNC(=N)N)NC(=O)[C@H](CO)NC(=O)[C@H](C)NC(=O)[C@H](CO)NC1=O)C(=O)N[C@@H](C)C(=O)N[C@@H](CCC(N)=O)C(=O)N[C@@H](CO)C(=O)N3)NC(=O)[C@H](CCCCN)NC(=O)CNC(=O)[C@H](CC(N)=O)NC(=O)[C@H](CCCC)NC2=O [compound 12] (H-P[Nle]E[Nle]RCSASRECAQSCLAAIGSIFGKC[Nle]NGKCKCYPR-NH2; disulfide 6-27, 12-32, 16-34) | 0.45 nM | – | – | – | – | – | –
3 | CC[C@H](C)[C@@H]1NC(=O)[C@H](C)NC(=O)[C@H](C)NC(=O)[C@H](CC(C)C)NC(=O)[C@@H]2CSSC[C@@H](C(=O)N[C@@H](Cc3ccc(O)cc3)C(=O)N3CCC[C@H]3C(=O)N[C@@H](CCCNC(=N)N)C(N)=O)NC(=O)[C@H](CCCCN)NC(=O)[C@@H]3CSSC[C@H](NC(=O)[C@H](CCC(=O)O)NC(=O)[C@H](C(C)C)NC(=O)[C@H](CO)NC(=O)[C@H](C)NC(=O)[C@H](CO)NC(=O)[C@@H](NC(=O)[C@H](CCCNC(=N)N)NC(=O)[C@H](CCSC)NC(=O)[C@H](CC(=O)O)NC(=O)[C@H](CCSC)NC(=O)[C@@H](N)CC(N)=O)CSSC[C@H](NC(=O)[C@H](CCCCN)NC(=O)CNC(=O)[C@H](Cc4ccccc4)NC(=O)[C@H]([C@@H](C)CC)NC(=O)[C@H](CO)NC(=O)CNC1=O)C(=O)N[C@@H](CCSC)C(=O)N[C@@H](CC(N)=O)C(=O)N[C@@H](CCCCN)C(=O)N[C@@H](CCCCN)C(=O)N3)C(=O)N[C@@H](CCCCN)C(=O)N[C@@H](CCC(N)=O)C(=O)N[C@@H](CCCCN)C(=O)N2 [compound 56] (H-NMDMRCSASVECKQKCLAAIGSIFGKCMNKKCKCYPR-NH2; disulfide 6-27, 12-32, 16-34) | – | 0.69 nM | 25.1 (+/−6.3) % | >27500 | >27500 | 803 | –
4 | CCCC[C@@H]1NC(=O)[C@@H]2CSSC[C@H](NC(=O)[C@H](CCCNC(=N)N)NC(=O)[C@H](CCCC)NC(=O)[C@H](CC(=O)O)NC(=O)[C@@H](NC(=O)[C@@H](N)CC(N)=O)[C@@H](C)CC)C(=O)N[C@@H](CO)C(=O)N[C@@H](C)C(=O)N[C@@H](CO)C(=O)N[C@@H](C(C)C)C(=O)N[C@@H](CCC(=O)O)C(=O)N[C@H]3CSSC[C@H](NC(=O)[C@H](CCCCN)NC(=O)[C@H](CCCCN)NC(=O)[C@H](CC(N)=O)NC1=O)C(=O)N[C@@H](CCCCN)C(=O)N[C@H](C(=O)N[C@@H](Cc1ccc(O)cc1)C(=O)N1CCC[C@H]1C(=O)N[C@@H](CCCNC(=N)N)C(=O)O)CSSC[C@H](NC(=O)[C@H](CCCCN)NC(=O)[C@H](CCC(N)=O)NC(=O)[C@H](CCCCN)NC3=O)C(=O)N[C@@H](CC(C)C)C(=O)N[C@@H](CCCCN)C(=O)N[C@@H](C)C(=O)N[C@@H]([C@@H](C)CC)C(=O)NCC(=O)N[C@@H](CO)C(=O)N[C@@H]([C@@H](C)CC)C(=O)N[C@@H](Cc1ccccc1)C(=O)NCC(=O)N[C@@H](CCCCN)C(=O)N2 [compound 91] (H-NID[Nle]RCSASVECKQKCLKAIGSIFGKC[Nle]NKKCKCYPR-OH; disulfide 6-27, 12-32, 16-34) | – | 1.2 nM | 39.6% | >11300 | >11300 | 7756 | –
5 | CCCC[C@@H]1NC(=O)[C@@H]2CSSC[C@H](NC(=O)[C@H](CCCNC(=N)N)NC(=O)[C@H](CCCC)NC(=O)[C@H](CCC(=O)O)NC(=O)[C@@H](NC(=O)[C@@H]3CCCN3)[C@@H](C)CC)C(=O)N[C@@H](CO)C(=O)N[C@@H](C)C(=O)N[C@@H](CO)C(=O)N[C@@H](C(C)C)C(=O)N[C@@H](CCC(=O)O)C(=O)N[C@H]3CSSC[C@H](NC(=O)[C@H](CCCCN)NC(=O)[C@H](CCCCN)NC(=O)[C@H](CC(N)=O)NC1=O)C(=O)N[C@@H](CCCCN)C(=O)N[C@H](C(=O)N[C@@H](Cc1ccc(O)cc1)C(=O)N1CCC[C@H]1C(=O)N[C@@H](CCCNC(=N)N)C(=O)O)CSSC[C@H](NC(=O)[C@H](CCCCN)NC(=O)[C@H](CCC(N)=O)NC(=O)[C@H](CCCCN)NC3=O)C(=O)N[C@@H](CC(C)C)C(=O)N[C@@H](C)C(=O)N[C@@H](C)C(=O)N[C@@H]([C@@H](C)CC)C(=O)NCC(=O)N[C@@H](CO)C(=O)N[C@@H]([C@@H](C)CC)C(=O)N[C@@H](Cc1ccccc1)C(=O)NCC(=O)N[C@@H](CCCCN)C(=O)N2 [compound 95] (H-PIE[Nle]RCSASVECKQKCLAAIGSIFGKC[Nle]NKKCKCYPR-OH; disulfide 6-27, 12-32, 16-34) | – | – | – | – | – | – | IC50 (Rat whole blood): 0.61 nM; % inhibition of ear thickness (AUC of Δ ear thickness 0-48 hours) ([2]; rat, in vivo): 44.5%; Selectivity ratio Kv1.6/Kv1.3 (human Kv1.6): >8600; Selectivity ratio Kv1.1/Kv1.3 (human Kv1.1): >8600; Selectivity ratio Kv1.2/Kv1.3 (human Kv1.2): 5630
6 | CCCC[C@H](NC(=O)[C@@H]1CCCN1)C(=O)N[C@@H](CCC(=O)O)C(=O)N[C@@H](CCCC)C(=O)N[C@@H](CCCNC(=N)N)C(=O)N[C@H]1CSSC[C@@H]2NC(=O)[C@H](CCCCN)NC(=O)CNC(=O)[C@H](Cc3ccccc3)NC(=O)[C@H]([C@@H](C)CC)NC(=O)[C@H](CO)NC(=O)CNC(=O)[C@H]([C@@H](C)CC)NC(=O)[C@H](C)NC(=O)[C@H](C)NC(=O)[C@H](CC(C)C)NC(=O)[C@@H]3CSSC[C@@H](C(=O)N[C@@H](Cc4ccc(O)cc4)C(=O)N4CCC[C@H]4C(=O)N[C@@H](CCCNC(=N)N)C(=O)O)NC(=O)[C@H](CCCCN)NC(=O)[C@H](CSSC[C@H](NC(=O)[C@H](CCC(=O)O)NC(=O)[C@H](C(C)C)NC(=O)[C@H](CO)NC(=O)[C@H](C)NC(=O)[C@H](CO)NC1=O)C(=O)N[C@@H](C)C(=O)N[C@@H](CCC(N)=O)C(=O)N[C@@H](CCCCN)C(=O)N3)NC(=O)[C@H](CCCCN)NC(=O)[C@H](CCCCN)NC(=O)[C@H](CC(N)=O)NC(=O)[C@H](CCCC)NC2=O [compound 97] (H-P[Nle]E[Nle]RCSASVECAQKCLAAIGSIFGKC[Nle]NKKCKCYPR-OH; disulfide 6-27, 12-32, 16-34) | – | 1.2 nM | 48.9% | >5500 | >5500 | 5500 | –
